Laboratory results as given in patent EP0432983A2 (priority 1989, dated 1991).
Converted amounts (≈) assume the structure as drawn.

Legend:
[1] = tested on: VSV (Vesicular Stomatitis Virus); assay: microbe, parasite or virus in culture; assay type: cell-based; conditions: BHK, read-out: IC50 µg/ml approx
[2] = tested on: P-388 (mouse DBA/2 lymphoid neoplasm); assay: General anti-tumour assay, P-388; assay type: cell-based
Experimental: (§1) With compounds AH-3, AH-4 and AH-5, four general anti-tumour assays and two cytotoxicity assays were performed. Current screening protocols were employed using test substance diluted as above and at varying concentrations. Tests were performed against the tumour cells P-388 (mouse DBA/2 lymphoid neoplasm), A-549 (human lung carcinoma), HT-29 (human colon carcinoma) and MCF-7 (human breast carcinoma) and for the cytotoxicity assays against CV-1 (monkey kidney fibroblast) and BHK (Hamster kidney fibroblast).
(§2) Scoring is performed as follows: (-) no activity - the number of cells is equal to the control of growth, 0-40% cell inhibition (+) low activity - numbers of cells are reduced by approx 50-60% (++) good activity - numbers of cells are reduced by approx 70-90% (+++) very good activity - there is 100% cell inhibition [(+) is the approximate IC₅₀]

[3] = tested on: BHK cells
[4] = tested on: HT-29 (human colon carcinoma); assay: General anti-tumour assay, HT-29; assay type: cell-based
Experimental: as §1, §2

[5] = tested on: BHK (Hamster kidney fibroblast); assay: Cytotoxicity assay, BHK; assay type: cell-based
Experimental: as §1, §2

[6] = tested on: MCF-7 (human breast carcinoma); assay: General anti-tumour assay, MCF-7; assay type: cell-based
Experimental: as §1, §2

[7] = tested on: CV-1 (monkey kidney fibroblast); assay: Cytotoxicity assay, CV-1; assay type: cell-based
Experimental: as §1, §2

[8] = tested on: A-549 (human lung carcinoma); assay: General anti-tumour assay, A-549; assay type: cell-based
Experimental: as §1, §2

[9] = tested on: HSV-1 (herpes simplex virus, type 1); assay: General anti-viral assay, HSV-1 in CV-1 cells (plaque reduction); assay type: cell-based; conditions: Human alphaherpesvirus 1, CV-1, read-out: IC50 µg/ml approx

CC(C)=CC(=O)CC(C)C1CCC(C)c2c1cc(C)c1c2OCO1 (stereo not drawn) [AH-3, Helioporin C]
IC50 [1]: > 40 µg/mL
IC50 ([2]; Mus musculus, P388, P-388, read-out: IC50 µg/ml approx): ~1 µg/mL (≈ 3.04 µM)
activity (cell inhibition) ([2]; P-388, TEST CONC (µg) 0.2): - ((-) no activity - the number of cells is equal to the control of growth, 0-40% cell inhibition)
activity (cell inhibition) ([2]; P-388, TEST CONC (µg) 0.5): - ((-) no activity - the number of cells is equal to the control of growth, 0-40% cell inhibition)
activity (cell inhibition) ([2]; P-388, TEST CONC (µg) 1): + ((+) low activity - numbers of cells are reduced by approx 50-60%)
activity (cell inhibition) ([2]; P-388, TEST CONC (µg) 2): ++ ((++) good activity - numbers of cells are reduced by approx 70-90%)
activity (cell inhibition) ([2]; P-388, TEST CONC (µg) 5): +++ ((+++) very good activity - there is 100% cell inhibition)
activity (cell inhibition) ([2]; P-388, TEST CONC (µg) 10): +++ ((+++) very good activity - there is 100% cell inhibition)
activity (cell inhibition) ([2]; P-388, TEST CONC (µg) 20): +++ ((+++) very good activity - there is 100% cell inhibition)
cytotoxicity (inhibition zone on the cell sheet) [3]: 0-
activity (cell inhibition) ([4]; HT-29, TEST CONC (µg) 0.2): - ((-) no activity - the number of cells is equal to the control of growth, 0-40% cell inhibition)
activity (cell inhibition) ([4]; HT-29, TEST CONC (µg) 0.5): - ((-) no activity - the number of cells is equal to the control of growth, 0-40% cell inhibition)
activity (cell inhibition) ([4]; HT-29, TEST CONC (µg) 1): - ((-) no activity - the number of cells is equal to the control of growth, 0-40% cell inhibition)
activity (cell inhibition) ([4]; HT-29, TEST CONC (µg) 2): + ((+) low activity - numbers of cells are reduced by approx 50-60%)
activity (cell inhibition) ([4]; HT-29, TEST CONC (µg) 5): ++ ((++) good activity - numbers of cells are reduced by approx 70-90%)
activity (cell inhibition) ([4]; HT-29, TEST CONC (µg) 10): +++ ((+++) very good activity - there is 100% cell inhibition)
activity (cell inhibition) ([4]; HT-29, TEST CONC (µg) 20): +++ ((+++) very good activity - there is 100% cell inhibition)
IC50 ([4]; Homo sapiens, HT-29, read-out: IC50 µg/ml approx): ~2 µg/mL (≈ 6.09 µM)
IC50 ([5]; Mesocricetus auratus, read-out: IC50 µg/ml approx): ~1 µg/mL (≈ 3.04 µM)
activity (cell inhibition) ([5]; TEST CONC (µg) 0.2): - ((-) no activity - the number of cells is equal to the control of growth, 0-40% cell inhibition)
activity (cell inhibition) ([5]; TEST CONC (µg) 0.5): - ((-) no activity - the number of cells is equal to the control of growth, 0-40% cell inhibition)
activity (cell inhibition) ([5]; TEST CONC (µg) 1): + ((+) low activity - numbers of cells are reduced by approx 50-60%)
activity (cell inhibition) ([5]; TEST CONC (µg) 2): +++ ((+++) very good activity - there is 100% cell inhibition)
activity (cell inhibition) ([5]; TEST CONC (µg) 5): +++ ((+++) very good activity - there is 100% cell inhibition)
activity (cell inhibition) ([5]; TEST CONC (µg) 10): +++ ((+++) very good activity - there is 100% cell inhibition)
activity (cell inhibition) ([5]; TEST CONC (µg) 20): +++ ((+++) very good activity - there is 100% cell inhibition)
IC50 ([6]; Homo sapiens, MCF7, MCF-7, read-out: IC50 µg/ml approx): ~5 µg/mL (≈ 15.2 µM)
activity (cell inhibition) ([6]; MCF-7, TEST CONC (µg) 0.2): - ((-) no activity - the number of cells is equal to the control of growth, 0-40% cell inhibition)
activity (cell inhibition) ([6]; MCF-7, TEST CONC (µg) 0.5): - ((-) no activity - the number of cells is equal to the control of growth, 0-40% cell inhibition)
activity (cell inhibition) ([6]; MCF-7, TEST CONC (µg) 1): - ((-) no activity - the number of cells is equal to the control of growth, 0-40% cell inhibition)
activity (cell inhibition) ([6]; MCF-7, TEST CONC (µg) 2): - ((-) no activity - the number of cells is equal to the control of growth, 0-40% cell inhibition)
activity (cell inhibition) ([6]; MCF-7, TEST CONC (µg) 5): + ((+) low activity - numbers of cells are reduced by approx 50-60%)
activity (cell inhibition) ([6]; MCF-7, TEST CONC (µg) 10): ++ ((++) good activity - numbers of cells are reduced by approx 70-90%)
activity (cell inhibition) ([6]; MCF-7, TEST CONC (µg) 20): +++ ((+++) very good activity - there is 100% cell inhibition)
activity (cell inhibition) ([7]; CV-1, TEST CONC (µg) 0.2): - ((-) no activity - the number of cells is equal to the control of growth, 0-40% cell inhibition)
activity (cell inhibition) ([7]; CV-1, TEST CONC (µg) 0.5): - ((-) no activity - the number of cells is equal to the control of growth, 0-40% cell inhibition)
activity (cell inhibition) ([7]; CV-1, TEST CONC (µg) 1): - ((-) no activity - the number of cells is equal to the control of growth, 0-40% cell inhibition)
activity (cell inhibition) ([7]; CV-1, TEST CONC (µg) 2): - ((-) no activity - the number of cells is equal to the control of growth, 0-40% cell inhibition)
activity (cell inhibition) ([7]; CV-1, TEST CONC (µg) 5): - ((-) no activity - the number of cells is equal to the control of growth, 0-40% cell inhibition)
activity (cell inhibition) ([7]; CV-1, TEST CONC (µg) 10): ++ ((++) good activity - numbers of cells are reduced by approx 70-90%)
activity (cell inhibition) ([7]; CV-1, TEST CONC (µg) 20): +++ ((+++) very good activity - there is 100% cell inhibition)
IC50 ([7]; Primates, CV-1, read-out: IC50 µg/ml approx): 5 to 10 µg/mL (≈ 15.2 to 30.4 µM)
activity (cell inhibition) ([8]; A-549, TEST CONC (µg) 0.2): - ((-) no activity - the number of cells is equal to the control of growth, 0-40% cell inhibition)
activity (cell inhibition) ([8]; A-549, TEST CONC (µg) 0.5): - ((-) no activity - the number of cells is equal to the control of growth, 0-40% cell inhibition)
activity (cell inhibition) ([8]; A-549, TEST CONC (µg) 1): - ((-) no activity - the number of cells is equal to the control of growth, 0-40% cell inhibition)
activity (cell inhibition) ([8]; A-549, TEST CONC (µg) 2): - ((-) no activity - the number of cells is equal to the control of growth, 0-40% cell inhibition)
activity (cell inhibition) ([8]; A-549, TEST CONC (µg) 5): + ((+) low activity - numbers of cells are reduced by approx 50-60%)
activity (cell inhibition) ([8]; A-549, TEST CONC (µg) 10): +++ ((+++) very good activity - there is 100% cell inhibition)
activity (cell inhibition) ([8]; A-549, TEST CONC (µg) 20): +++ ((+++) very good activity - there is 100% cell inhibition)
IC50 ([8]; Homo sapiens, A549, A-549, read-out: IC50 µg/ml approx): ~5 µg/mL (≈ 15.2 µM)
IC50 [9]: ~40 µg/mL (≈ 122 µM)
